{"source": "patent US11090329B2", "about": "“Method and composition for treating gastro-esophageal disorders” (priority 2012, dated 2021)", "origin": "cited, not measured here", "tested_on": "esophagitis caused by chemo-radiotherapy", "conditions": "patients with advanced stage III non-small-cell lung cancer"}
{"smiles": "O=C(O[C@@H]1Cc2c(O)cc(O)cc2O[C@@H]1c1cc(O)c(O)c(O)c1)c1cc(O)c(O)c(O)c1", "note": "[EGCG, epigallocatechin gallate A]", "values": [{"measurement": "esophagitis caused by chemo-radiotherapy", "value": "reduce esophagitis"}]}
